Patent US12643867B2, “Compositions and uses thereof” (University of Virginia Patent Foundation, priority 2017, dated 2026)

How the values were obtained:
[1] = target: T1, BRAF (Homo sapiens, UniProt P15056); test: ATP acyl phosphate chemical proteomics in lung cancer cell proteomes; assay type: binding
T1 construct: measure selectivity of compounds against native kinases detected in lung cancer proteomes; endogenous in cells; host or cells: A549 and H82 lung cancer cell proteomes
Procedure: LC-MS analysis of SILAC samples using ATP acyl phosphates. Quantitative chemoproteomics was performed as previously described (Franks et al., 2017; McCloud et al., 2018).
Computational Methods. Data for A549 and H82 cell lines were searched with IP2 and manually validated using the methods previously described (Franks et al., 2017). Data for Desthiobiotin-tagged ATP acyl-phosphate probes and ATP competitive peptides were compared and clustered. Ritanserin and ketanserin inhibition profiles were compared using SILAC ratios and normalized to DMSO.
Based on previous chemical proteomics (Franks, 2017), it was hypothesized that ritanserin is functioning as a kinase inhibitor to mediate cytotoxicity in the lung cancer cell models. […] For these studies, NSCLC and SCLC cells were cultured in isotopically light and heavy amino acids to enable quantitative chemical proteomics (Chang. 2015) by stable isotope labeling with amino acids in cell culture (SILAC, FIG. 17A). […] After probe labeling, light and heavy proteomes were combined, digested with trypsin protease, and desthiobiotin-modified peptides enriched by avidin affinity chromatography and analyzed by LC-MS/MS to identify and quantify isotopically tagged active-site peptides from native kinases as previously described(Franks, 2017) (FIG. 17A).
To further confirm that ritanserin is a CRAF inhibitor, a targeted parallel reaction monitoring method (PRM) was developed to evaluate compound activity against CRAF and other members of the RAF family (ARAF and BRAF). Targeted PRM was needed because of the low abundance of CRAF compared with ARAF and BRAF). […] Ritanserin activity was also measured against RAF kinases in A549 proteomes using the targeted LC-MS method. […] The data further support previous findings that this RAF member is enriched in SCLC cells (REF).

[2] = tested on: Bone Marrow Derived Macrophages (BMDMs), noncancerous primary cells; test: WST-1 Cell Proliferation Assay; assay type: cell-based; settings: ritanserin highest concentration tested 50 μM; staurosporine 1 μM
[3] = target: T2, hDGKa C1 domain cysteines (Homo sapiens, UniProt P23743); test: JWB003 labeling competition in vitro; assay type: binding
T2 construct: expressed in transfected cells; host or cells: HEK293T
Procedure: • 1. HEK293T cells were harvested in cold PBS. • a. Cells were transferred to Eppendorf tube. • 2. Cells were lysed via tip sonicator. • 3. Cells were fractionated into membrane and soluble fraction. • a. 100,000×G for 45 minutes at 4 degree. • b. Supernatant was separated from cell pellet. • 4. Dilute proteomes to 1 mg/mL in PBS and aliquot appropriate reaction volume (49 μL for probe only; 48 μL for competition+probe) • 5. Cells were treated with 50× inhibitor. • a. Incubated for 1Hr at 37 degree. • 6. Cells were treated with 50× Probe (JWB003). • a. Incubated for 1Hr at 37 degree. • 7. Add 6 μL of master mix to each alkyne probe-labeled sample. • a. 1 μL of 1.25 mM Rh-N3 • b. 1 μL of fresh 50 mM TCEP • c. 3 μL of 1.7 mM TBTA stock • d. 1 μL of 50 mM CuSO4 • 8. Vortex samples. • 9. Incubate at room temperature for 1 hr • 10. Quench with 17 μL of 4×SDS-PAGE loading buffer+βME and vortex tubes. • 11. Analyze 30 μL samples by SDS-PAGE immediately. [B] Labeling HEK293T Cells to Determine Target Proteins of JWB003 in Live Cells (In Situ) • 1. Complete media was removed from HEK293T cells and replaced with serum free media containing JWB003 at the appropriate final concentration • a. Cells were placed in incubator for appropriate time at 37 degree 5% CO2 • 2. Cells were washed • a. 2× warm PBS • b. 2× cold PBS • c. Harvest cells in cold PBS • 3. Cells were transferred to Eppendorf tube • 4. Cells were lysed via tip sonicator • 5. Cells were fractionated into membrane and soluble fraction • a. 100,000×G for 45 minutes at 4 degrees • b. Supernatant was separated from cell pellet. • 6. Dilute proteomes to 1 mg/mL and aliquot appropriate reaction volume (50 μL) • 7. Add 6 μL of master mix to each alkyne probe-labeled sample. • a. 1 μL of 1.25 mM Rh-N3 • b. 1 μL of fresh 50 mM TCEP • c. 3 μL of 1.7 mM TBTA stock • d. 1 μL of 50 mM CuSO4 • 8. Vortex samples. • 9. Incubate at room temperature for 1 hr. • 10. Quench with 17 μL of 4×SDS-PAGE loading buffer+βME and vortex tubes. • 11. Analyze 30 μL samples by SDS-PAGE immediately. [C] […]

T1 sequence (P15056 whole entry): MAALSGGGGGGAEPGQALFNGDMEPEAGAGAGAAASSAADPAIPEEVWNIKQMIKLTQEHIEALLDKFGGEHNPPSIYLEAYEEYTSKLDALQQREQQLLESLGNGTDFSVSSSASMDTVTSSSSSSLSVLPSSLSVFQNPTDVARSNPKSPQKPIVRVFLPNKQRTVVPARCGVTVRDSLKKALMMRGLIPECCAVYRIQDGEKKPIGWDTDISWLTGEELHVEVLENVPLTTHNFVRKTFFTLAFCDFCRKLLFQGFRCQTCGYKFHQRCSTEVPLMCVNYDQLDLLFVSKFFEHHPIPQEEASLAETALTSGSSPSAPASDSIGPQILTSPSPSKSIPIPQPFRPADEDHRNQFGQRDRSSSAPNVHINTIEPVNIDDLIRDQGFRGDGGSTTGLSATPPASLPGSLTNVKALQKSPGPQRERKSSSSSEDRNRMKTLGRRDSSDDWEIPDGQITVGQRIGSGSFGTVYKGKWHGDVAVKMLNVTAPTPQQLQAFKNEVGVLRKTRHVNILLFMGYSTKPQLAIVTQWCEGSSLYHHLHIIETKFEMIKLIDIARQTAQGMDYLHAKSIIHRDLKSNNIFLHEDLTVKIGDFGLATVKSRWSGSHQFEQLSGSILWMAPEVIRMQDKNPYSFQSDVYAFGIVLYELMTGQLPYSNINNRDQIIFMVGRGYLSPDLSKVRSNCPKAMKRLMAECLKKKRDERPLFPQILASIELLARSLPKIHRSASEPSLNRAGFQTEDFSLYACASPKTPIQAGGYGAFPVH
T2 sequence (P23743 whole entry, the tested form may be a part): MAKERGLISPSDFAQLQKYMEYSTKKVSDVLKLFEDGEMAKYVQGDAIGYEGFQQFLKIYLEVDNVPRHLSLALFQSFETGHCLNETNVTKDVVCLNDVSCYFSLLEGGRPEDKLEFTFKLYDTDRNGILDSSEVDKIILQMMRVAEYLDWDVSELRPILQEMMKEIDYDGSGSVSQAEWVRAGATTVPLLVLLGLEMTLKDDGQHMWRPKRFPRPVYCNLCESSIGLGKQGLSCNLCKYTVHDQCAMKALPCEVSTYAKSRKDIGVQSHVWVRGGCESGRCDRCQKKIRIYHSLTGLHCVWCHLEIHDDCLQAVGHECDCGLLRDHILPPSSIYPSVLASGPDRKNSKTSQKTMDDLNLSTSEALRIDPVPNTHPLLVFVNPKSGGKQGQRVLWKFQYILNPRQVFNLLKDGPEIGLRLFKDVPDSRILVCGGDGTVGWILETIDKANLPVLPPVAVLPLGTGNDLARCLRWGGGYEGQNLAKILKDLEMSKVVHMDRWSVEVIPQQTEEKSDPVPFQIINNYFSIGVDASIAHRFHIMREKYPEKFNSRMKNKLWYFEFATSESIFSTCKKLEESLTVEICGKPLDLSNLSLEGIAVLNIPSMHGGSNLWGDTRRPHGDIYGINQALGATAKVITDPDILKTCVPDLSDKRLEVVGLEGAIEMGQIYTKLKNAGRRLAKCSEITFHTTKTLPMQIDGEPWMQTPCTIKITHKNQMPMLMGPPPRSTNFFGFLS

Cc1nc2sccn2c(=O)c1CCN1CCC(=C(c2ccc(F)cc2)c2ccc(F)cc2)CC1 [Ritanserin]
inhibition by three-fold change cutoff ([1]; 100 μM, A549 and H82 proteomes): BRAF inhibition | activity by targeted PRM ([1]; H82 proteomes): negligible activity | cell killing of noncancerous primary cells (WST-1), words [2]: negligible cell killing | inhibition of JWB003 probe labeling of hDGKa [3]: Probe labeling is inhibited
